What all share (format): cell-based
For experiment [1], the system named is human multiple myeloma cell line NCI-H929. Description: H929 Cell Viability Assay. To be noted: 48 hr, NCI-H929 cells, Celltiter-Glo, read-out: 48 hr H929 Viability Celltiter-Glo: Mean EC50. The method, then: Plates were incubated at 37° C., 5% CO2 for 48 hours. After 48 hours, Celltiter-Glo® (Promega) was added to each well and luciferase signal was quantified using Tecan Infinite M1000 Pro for cell viability determination.
For chemical structures that include one or more stereoisomers, but are illustrated without indicating stereochemistry, the assay data refers to a mixture of stereoisomers.

Experiment [2] has as its system IL-2-FL/Gaussia Luciferase. Description: Dox Induced IL2-FL-Gluc Assay. The following applies: 293FRT/TO cells, read-out: 24 hr Dox Inducible IL2FLGIuc 293FRT/TO: Mean IC50. A digest of the protocol: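 Compounds were added together with doxycycline in DMSO/media and incubated at 37° C., 5% CO2. The cells were a stably selected line carrying IL-2-FL/Gaussia luciferase under T-REx inducible control. Structures drawn without stereochemistry were tested as stereoisomer mixtures.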

For experiment [3], the system named is HER3-ss+4aa/Gaussia Luciferase. Description: Dox-Induced Her3-ss-Gluc Assay. To be noted: 293FRT/TO cells, read-out: 24 hr Dox Inducible Her3(ss + 4)Gluc 293FRT/TO: Mean IC50. The essentials:
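Compounds, diluted in DMSO/media containing doxycycline, were incubated at 37° C., 5% CO2 with cells seeded one day earlier. The cells stably express HER3-ss+4aa/Gaussia luciferase under T-REx control. Where no stereochemistry is shown, data refer to the mixture of stereoisomers.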

Experiment [4] relates to TNFα-FL/Gaussia Luciferase. Description: Dox Induced TNFα-FL-Gluc Assay. The following applies: 293FRT/TO cells, read-out: 24 hr Dox Inducible TNFaFLGluc 293FRT/TO: Mean IC50. A digest of the protocol: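 Compounds were added in doxycycline-containing DMSO/media to cells plated the previous day and incubated at 37° C under 5% CO2. These cells stably express a TNFα-FL/Gaussia luciferase cDNA whose expression is under T-REx (Dox-inducible) control, selected with Hygromycin and Blasticidin.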

Experiment [5] deals with PD1-ss+10aa/Gaussia Luciferase. Description: Dox-Induced PD1-ss-Gluc Assay. To be noted: 293FRT/TO cells, read-out: 24 hr Dox Inducible PD1ssGluc 293FRT/TO: Mean IC50. A digest of the protocol:
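Compounds, diluted in DMSO/media with doxycycline, were added to cells plated a day earlier and kept at 37° C under 5% CO2. The cells stably express a Gaussia luciferase construct fused to PD1-ss+10aa, induced via the T-REx system. Unassigned stereochemistry means mixture data.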

Experiment [6] relates to human multiple myeloma cell line U266B1. Kind of experiment: U266 Cell Viability Assay. To be noted: U-266, 48 hr, U266B1 cells, Celltiter-Glo, read-out: 48 hr U266 Viability Celltiter-Glo: Mean EC50. The essentials:
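Viability measured by CellTiter-Glo luciferase signal after 48 h compound exposure (37 °C, 5% CO2) of U266B1 cells in 384-well format. Where stereochemistry is not shown, data refer to the stereoisomer mixture.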
For orientation: In ATP-based viability assays light output follows the ATP content of the culture.

Setting [7] is: 24 hr doxycycline induction, Gaussia luciferase signal.

By EC50 is commonly meant the concentration giving half of the maximal effect.

SMILES strings stand for the structures. Like-named read-outs stand apart in the source and are kept apart here. Some results are limits rather than exact numbers.

Turning to `O=C(Nc1nc(/C=C/c2ncc(OC3CCCC3)cc2F)cs1)c1cccn1Cc1ccncc1` [Compound A295], the 50% effective concentration (EC50) in experiment [1] worked out at 18.3 µM; in experiment [6] it was 18.9 µM. The IC50 in experiment [2] (24 hr, doxycycline-induced) was found to be 0.846 µM; in experiment [3] (24 hr, doxycycline-induced), 0.692 µM; in experiment [4] (24 hr, doxycycline-induced), 3.56 µM; in experiment [5] (24 hr, doxycycline-induced), 0.005 µM.
As for `COc1ccc(/C=C/c2csc(NC(=O)c3cccn3Cc3ccncc3)n2)nc1` [Compound A269, N-(4-(2-(5-methoxypyridin-2-yl)vinyl)thiazol-2-yl)-1-(pyridin-4-ylmethyl)-1H-pyrrole-2-carboxamide], the results for the EC50 in experiment [1] and in experiment [6] were greater than 21.6 µM and greater than 25 µM, respectively. Besides, the IC50 in experiment [2] (setting [7]) was found to be 2.92 µM; in experiment [3] (setting [7]) it was 1.57 µM; in experiment [4] (setting [7]), 20.3 µM; in experiment [5] (setting [7]), 0.013 µM.
Consider `CC(C)OC(C)(C)c1csc(NC(=O)c2cccn2CC2CCOCC2)n1` [Compound A71], for which the EC50 in experiment [1] and in experiment [6] was greater than 25 µM in each case. Further, the IC50 in experiment [2] (setting [7]) is 3.54 µM; in experiment [3] (setting [7]) it was 5.44 µM; in experiment [4] (setting [7]), greater than 25 µM; in experiment [5] (setting [7]), 2.28 µM.
For `CN(C(=O)c1cccn1Cc1ccncc1)c1nc2ccccc2s1` [Compound A116], the EC50 in experiment [1] and in experiment [6] was greater than 25 µM each time. For the same molecule, the IC50 in experiment [2] (setting [7]), in experiment [3] (setting [7]), in experiment [4] (setting [7]) and in experiment [5] (setting [7]) was greater than 25 µM throughout.
Consider `COc1ccc(O[C@H]2C[C@H](c3csc(NC(=O)c4cccn4Cc4ccncc4)n3)C2)nc1` [Compound A314], for which the EC50 in experiment [1] was 9.98 µM; in experiment [6], 16 µM. Also, the IC50 in experiment [2] (24 hr, doxycycline-induced) came to 0.424 µM; in experiment [3] (24 hr, doxycycline-induced), 0.145 µM; in experiment [4] (24 hr, doxycycline-induced) it was 1.47 µM; in experiment [5] (24 hr, doxycycline-induced), 0.047 µM.
Turning to `O=C(Nc1nc([C@H]2CCN(c3ccccc3)C2)cs1)c1cccn1Cc1ccncc1` [Compound A290], the EC50 in experiment [1] is 15.2 µM; in experiment [6] it was 20.8 µM. Also, the IC50 in experiment [2] (setting [7]) turned out to be 1.4 µM; in experiment [3] (setting [7]), 0.648 µM; in experiment [4] (setting [7]), 4.02 µM; in experiment [5] (setting [7]), 0.261 µM.
For the molecule `O=C(Nc1nc2cccnc2s1)c1cccn1Cc1ccncc1` [Compound A121], the EC50 in experiment [1] and in experiment [6] was greater than 25 µM throughout. Further, the IC50 in experiment [2] (setting [7]), in experiment [3] (setting [7]), in experiment [4] (setting [7]) and in experiment [5] (setting [7]) was greater than 25 µM each time.
For `CCc1nc(NC(=O)c2cccn2Cc2ccccc2)sc1C` [Compound B9, 1-benzyl-N-(4-ethyl-5-methylthiazol-2-yl)-1H-pyrrole-2-carboxamide], the EC50 in experiment [1] and in experiment [6] was greater than 25 µM throughout. The IC50 in experiment [2] (24 hr, doxycycline-induced) is greater than 25 µM; in experiment [3] (24 hr, doxycycline-induced), greater than 25 µM; in experiment [4] (24 hr, doxycycline-induced), greater than 25 µM; in experiment [5] (24 hr, doxycycline-induced), 9.43 µM.
Consider `Cc1sc(NC(=O)c2cccn2Cc2ccncc2)nc1C(C)(C)OC(C)C` [Compound A37, N-(4-(2-isopropoxypropan-2-yl)-5-methylthiazol-2-yl)-1-(pyridin-4-ylmethyl)-1H-pyrrole-2-carboxamide], for which the EC50 in experiment [1] and in experiment [6] was greater than 25 µM each time. In addition, the IC50 is 1.07 µM in experiment [2] (setting [7]), 1.24 µM in experiment [3] (setting [7]), 12.1 µM in experiment [4] (setting [7]) and 0.703 µM in experiment [5] (setting [7]).
`CC(C)OC(C)(C)c1csc(NC(=O)c2cccc(=O)n2Cc2ccncc2)n1` [Compound A106, N-(4-(2-isopropoxypropan-2-yl)thiazol-2-yl)-6-oxo-1-(pyridin-4-ylmethyl)-1,6-dihydropyridine-2-carboxamide]: the EC50 in experiment [1] and in experiment [6] was greater than 25 µM in each case. Also, the IC50 in experiment [2] (setting [7]), in experiment [3] (setting [7]), in experiment [4] (setting [7]) and in experiment [5] (setting [7]) was greater than 25 µM in each case.
On to `O=C(Nc1nc([C@@H]2CCCCN2c2ccccc2)cs1)c1cccn1Cc1ccncc1` [Compound A332], for which the EC50 in experiment [1] is 4.29 µM; in experiment [6], greater than 25 µM. For the same molecule, the IC50 was 0.082 µM in experiment [2] (24 hr, doxycycline-induced); 0.097 µM in experiment [3] (24 hr, doxycycline-induced); 0.516 µM in experiment [4] (24 hr, doxycycline-induced); 0.064 µM in experiment [5] (24 hr, doxycycline-induced).
As for `O=C(Nc1nc(C2Cc3ccccc3C2)cs1)c1cccn1Cc1ccncc1` [Compound A281], the figures for the EC50 in experiment [1] and in experiment [6] were 11 µM and greater than 25 µM, respectively. For the same molecule, the IC50 in experiment [2] (setting [7]) was determined as 1.16 µM; in experiment [3] (setting [7]), 0.817 µM; in experiment [4] (setting [7]), 1.95 µM; in experiment [5] (setting [7]), 0.244 µM.
Consider `N#Cc1ccc(/C=C/c2csc(NC(=O)c3cccn3Cc3ccncc3)n2)nc1` [Compound A341], for which the EC50 in experiment [1] and in experiment [6] was greater than 25 µM each time. In addition, the IC50 in experiment [2] (24 hr, doxycycline-induced) was greater than 25 µM; in experiment [3] (24 hr, doxycycline-induced), greater than 25 µM; in experiment [4] (24 hr, doxycycline-induced) it was greater than 25 µM; in experiment [5] (24 hr, doxycycline-induced), 0.047 µM.
`CC(C)OC(C)(C)c1csc(NC(=O)c2cccn2Cc2ccccc2)n1` [Compound A79, 1-benzyl-N-(4-(2-isopropoxypropan-2-yl)thiazol-2-yl)-1H-pyrrole-2-carboxamide]: the figures for the 50% effective concentration (EC50) in experiment [1] and in experiment [6] were 24.9 µM and greater than 25 µM, respectively. The IC50 in experiment [2] (setting [7]) is 4.15 µM; in experiment [3] (setting [7]) it was 5.26 µM; in experiment [4] (setting [7]), greater than 25 µM; in experiment [5] (setting [7]), 3.18 µM.
Consider `CCc1csc(NC(=O)c2cccn2Cc2ccncc2)n1` [Compound A35, N-(4-ethylthiazol-2-yl)-1-(pyridin-4-ylmethyl)-1H-pyrrole-2-carboxamide], for which the EC50 in experiment [1] and in experiment [6] was greater than 25 µM in each case. For the same molecule, the IC50 in experiment [2] (setting [7]) was 2.3 µM; in experiment [3] (setting [7]), 1.94 µM; in experiment [4] (setting [7]), greater than 25 µM; in experiment [5] (setting [7]), 0.692 µM.
With `N#Cc1ccc(/C=C/c2csc(NC(=O)c3cccn3Cc3ccncc3)n2)cc1` [Compound A224, N-(4-(4-cyanostyryl)thiazol-2-yl)-1-(pyridin-4-ylmethyl)-1H-pyrrole-2-carboxamide], the EC50 was 20.5 µM in experiment [1] and greater than 25 µM in experiment [6]. The IC50 in experiment [2] (setting [7]) was greater than 25 µM; in experiment [3] (setting [7]), 0.296 µM; in experiment [4] (setting [7]) it was greater than 25 µM; in experiment [5] (setting [7]) it was 0.141 µM.
Take `O=C(Nc1nc([C@@H]2COCCN2c2ccccc2)cs1)c1cccn1Cc1ccncc1` [Compound A337]: the EC50 is 21.5 µM in experiment [1] and greater than 25 µM in experiment [6]. In addition, the IC50 in experiment [2] (24 hr, doxycycline-induced) was 0.379 µM; in experiment [3] (24 hr, doxycycline-induced) it was 0.548 µM; in experiment [4] (24 hr, doxycycline-induced), 2.85 µM; in experiment [5] (24 hr, doxycycline-induced) it was 0.19 µM.
Consider `O=C(Nc1nc(Cc2ccccc2)cs1)c1cccn1Cc1ccncc1` [Compound A17, N-(4-benzylthiazol-2-yl)-1-(pyridin-4-ylmethyl)-1H-pyrrole-2-carboxamide], for which the EC50 was 20.8 µM in experiment [1] and greater than 25 µM in experiment [6]. Moreover, the IC50 was 0.804 µM in experiment [2] (setting [7]), 0.56 µM in experiment [3] (setting [7]), 2.23 µM in experiment [4] (setting [7]) and 0.191 µM in experiment [5] (setting [7]).
`CNC(=O)c1ccc(/C=C/c2csc(NC(=O)c3cccn3Cc3ccncc3)n2)cc1` [Compound A239]: the EC50 in experiment [1] and in experiment [6] was greater than 25 µM in each case. In addition, the IC50 in experiment [2] (setting [7]) is greater than 25 µM; in experiment [3] (setting [7]), greater than 25 µM; in experiment [4] (setting [7]), greater than 25 µM; in experiment [5] (setting [7]), 1.51 µM.

(Values after US20220153732A1, “PROTEIN SECRETION INHIBITORS” (KEZAR LIFE SCIENCES, priority 2019, published 2022).)
